Source: ChEMBL document CHEMBL1201862, “PubChem BioAssay data set” (2004)
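48-hour exposure; five concentrations; linearly interpolated endpoints. GI50 marks 50% less growth.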 The source made the active and inactive calls. No stated cut-off is given here; in the data, active = GI50 up to about 1.1 µM and inactive = higher.

Experiments:
Experiment in all cases: NCI tumour cell line growth inhibition, 48 h
[1] = test system: OVCAR-4
[2] = test system: RPMI-8226
[3] = test system: NCI/ADR-RES
[4] = test system: HOP-92
[5] = test system: CCRF-CEM
[6] = test system: SN12C
[7] = test system: PC-3
[8] = test system: HL-60
[9] = test system: LOX IMVI
[10] = test system: CAKI-1
[11] = test system: MDA-N
[12] = test system: OVCAR-5
[13] = test system: UACC-62
[14] = test system: SNB-75
[15] = test system: KM12
[16] = test system: Hs-578T
[17] = test system: MDA-MB-231
[18] = test system: SF-268
[19] = test system: HCT-116
[20] = test system: MOLT-4

CC(=O)NC1C(OCc2ccccc2)OC(CO)C(O)C1OC(C)C(=O)N[C@@H](C)C(=O)N[C@H](CCC(=O)NCCNCCNc1c2ccccc2nc2cccc([N+](=O)[O-])c12)C(N)=O (some centres not stated)
GI50 [1]: 0.0228 µM (active) | GI50 [2]: 0.0698 µM (active) | GI50 [3]: 1.73 µM (inactive) | GI50 [4]: 0.0244 µM (active) | GI50 [5]: 0.201 µM (active) | GI50 [6]: 0.104 µM (active) | GI50 [7]: 0.0321 µM (active) | GI50 [8]: 0.308 µM (active) | GI50 [9]: 0.136 µM (active) | GI50 [10]: 0.0634 µM (active) | GI50 [11]: 0.0708 µM (active) | GI50 [12]: 0.336 µM (active) | GI50 [13]: 0.0659 µM (active) | GI50 [14]: 0.205 µM (active) | GI50 [15]: 0.0783 µM (active) | GI50 [16]: 0.356 µM (active) | GI50 [17]: 0.177 µM (active) | GI50 [18]: 0.164 µM (active) | GI50 [19]: 0.0214 µM (active) | GI50 [20]: 0.0935 µM (active)

Cc1cc(-c2nc3c(O)cccc3s2)ccc1N
GI50 [2]: 45 µM (inactive) | GI50 [3]: 19.9 µM (inactive) | GI50 [4]: 18.8 µM (inactive) | GI50 [5]: 27.3 µM (inactive) | GI50 [6]: 27.2 µM (inactive) | GI50 [7]: 21.2 µM (inactive) | GI50 [8]: 19.3 µM (inactive) | GI50 [9]: 17.3 µM (inactive) | GI50 [10]: 21.3 µM (inactive) | GI50 [11]: 25.4 µM (inactive) | GI50 [13]: 12.2 µM (inactive) | GI50 [14]: 83.6 µM (inactive) | GI50 [15]: 23.3 µM (inactive) | GI50 [16]: 18.2 µM (inactive) | GI50 [17]: 22.9 µM (inactive) | GI50 [18]: 21 µM (inactive) | GI50 [19]: 20.4 µM (inactive) | GI50 [20]: 25.4 µM (inactive)

O=c1c2cc([N+](=O)[O-])ccc2n2n1CCCCC2
GI50 [1]: > 100 µM (inactive) | GI50 [2]: > 100 µM (inactive) | GI50 [3]: > 100 µM (inactive) | GI50 [4]: > 100 µM (inactive) | GI50 [5]: > 100 µM (inactive) | GI50 [6]: > 100 µM (inactive) | GI50 [7]: > 100 µM (inactive) | GI50 [8]: > 100 µM (inactive) | GI50 [9]: > 100 µM (inactive) | GI50 [10]: > 100 µM (inactive) | GI50 [11]: > 100 µM (inactive) | GI50 [12]: > 100 µM (inactive) | GI50 [13]: > 100 µM (inactive) | GI50 [14]: > 100 µM (inactive) | GI50 [15]: > 100 µM (inactive) | GI50 [16]: > 100 µM (inactive) | GI50 [17]: > 100 µM (inactive) | GI50 [18]: > 100 µM (inactive) | GI50 [19]: > 100 µM (inactive) | GI50 [20]: > 100 µM (inactive)

Nc1nncc2[nH]cnc12
GI50 [1]: > 100 µM (inactive) | GI50 [2]: 14.4 µM (inactive) | GI50 [3]: 94 µM (inactive) | GI50 [4]: > 100 µM (inactive) | GI50 [5]: 5.09 µM (inactive) | GI50 [6]: > 79.4 µM (inactive) | GI50 [7]: 69 µM (inactive) | GI50 [8]: 15 µM (inactive) | GI50 [9]: 25.5 µM (inactive) | GI50 [10]: 66.2 µM (inactive) | GI50 [11]: 49.5 µM (inactive) | GI50 [12]: 49.3 µM (inactive) | GI50 [13]: 47.3 µM (inactive) | GI50 [14]: > 56.9 µM (inactive) | GI50 [15]: 44.1 µM (inactive) | GI50 [16]: > 78.7 µM (inactive) | GI50 [17]: 99.5 µM (inactive) | GI50 [18]: 50.5 µM (inactive) | GI50 [19]: 36.6 µM (inactive) | GI50 [20]: 10.1 µM (inactive)

O=C(N/N=C(COc1ccc(Cl)cc1)\N=C\c1ccncc1)c1ccncc1
GI50 [1]: > 100 µM (inactive) | GI50 [2]: 83.8 µM (inactive) | GI50 [3]: > 100 µM (inactive) | GI50 [4]: 43.3 µM (inactive) | GI50 [5]: > 100 µM (inactive) | GI50 [6]: > 100 µM (inactive) | GI50 [7]: > 100 µM (inactive) | GI50 [8]: > 100 µM (inactive) | GI50 [9]: > 100 µM (inactive) | GI50 [10]: > 100 µM (inactive) | GI50 [11]: > 100 µM (inactive) | GI50 [12]: > 100 µM (inactive) | GI50 [13]: > 100 µM (inactive) | GI50 [15]: > 100 µM (inactive) | GI50 [16]: > 100 µM (inactive) | GI50 [17]: > 100 µM (inactive) | GI50 [18]: > 100 µM (inactive) | GI50 [19]: > 100 µM (inactive) | GI50 [20]: > 100 µM (inactive)

Fc1cc(F)c(F)c(S)c1F
GI50 [1]: 62.4 µM (inactive) | GI50 [2]: 31.3 µM (inactive) | GI50 [3]: 19.4 µM (inactive) | GI50 [4]: > 100 µM (inactive) | GI50 [5]: 29.5 µM (inactive) | GI50 [6]: 20.4 µM (inactive) | GI50 [7]: 19.8 µM (inactive) | GI50 [8]: 30.1 µM (inactive) | GI50 [9]: > 100 µM (inactive) | GI50 [10]: > 100 µM (inactive) | GI50 [11]: > 100 µM (inactive) | GI50 [12]: > 100 µM (inactive) | GI50 [13]: > 100 µM (inactive) | GI50 [14]: > 100 µM (inactive) | GI50 [15]: > 100 µM (inactive) | GI50 [16]: 37.5 µM (inactive) | GI50 [17]: 22.1 µM (inactive) | GI50 [18]: 77.3 µM (inactive) | GI50 [19]: > 100 µM (inactive) | GI50 [20]: 23.8 µM (inactive)

O=C(O)CCC(NC(=O)/C(=C/c1ccccc1)NC(=O)c1ccccc1)C(=O)O (configuration not stated)
GI50 [1]: > 100 µM (inactive) | GI50 [2]: > 100 µM (inactive) | GI50 [3]: > 100 µM (inactive) | GI50 [4]: > 100 µM (inactive) | GI50 [5]: > 100 µM (inactive) | GI50 [6]: > 100 µM (inactive) | GI50 [7]: > 100 µM (inactive) | GI50 [8]: > 100 µM (inactive) | GI50 [9]: > 100 µM (inactive) | GI50 [10]: > 100 µM (inactive) | GI50 [11]: > 100 µM (inactive) | GI50 [12]: > 100 µM (inactive) | GI50 [13]: > 100 µM (inactive) | GI50 [14]: > 100 µM (inactive) | GI50 [15]: > 100 µM (inactive) | GI50 [16]: > 100 µM (inactive) | GI50 [17]: > 100 µM (inactive) | GI50 [18]: > 100 µM (inactive) | GI50 [19]: > 100 µM (inactive) | GI50 [20]: > 100 µM (inactive)
